From patent US20070025991A1, “Use of antagonists of ghrelin or ghrelin receptor to treat intestinal inflammation” (priority 2003, published 2007)
Non-standard residues stand in square brackets, D forms with d. No end group written: not given here.

Experiments:
[1] = test system: ghrelin-induced MAP kinase phosphorylation in IEC-GHS-R cells (rat GHS-R); assay: MAP kinase phosphorylation in IEC-GHS-R cells (western blot, phospho-MAPK antibody); type: cell-based
Method: To examine whether an anti-ghrelin IgG or a GHS-R antagonist [D-lys-3]-GHRP-6 blocks ghrelin-mediated responses in experimental colitis, experiments were first performed to test the efficiency of these reagents using in vitro assays. Since ghrelin was previously shown to activate MAP kinase in human HepG2 cells, the effect of the anti-ghrelin antibody or [D-lys-3]-GHRP-6 on ghrelin-induced MAP kinase activation was determined. For these experiments, rat full-length GHS-R cDNA was cloned from rat brain RNA and then subcloned into the retroviral expression vector pMMP. The retroviruses expressing rat GHS-R were used to infect normal rat intestinal epithelial cell line IEC-6 cells (from ATCC). The resulting cell line was named IEC-GHS-R cells.
The response of the IEC-GHS-R to rat ghrelin was determined using this MAP kinase assay. Briefly, serum starved IEC-GHS-R cells were treated with ghrelin (10^−7 M) for various times. […]
To determine the effect of an anti-ghrelin IgG or a GHS-R antagonist [D-lys-3]-GHRP on ghrelin-induced MAPK phosphorylation, IEC-GHS-R cells were pretreated with the anti-ghrelin IgG (2 and 5 μg/ml) or with normal rabbit IgG or [D-lys-3]-GHRP-6 (1-20 nM) for 10 minutes and then treated with rat ghrelin for 5 minutes. MAP kinase phosphorylation was then determined.

[2] = test system: toxin A-induced intestinal fluid secretion; parameters: species or system mice; conditions: mouse, in vivo, ip
[3] = test system: food intake; conditions: food intake induced by centrally injected ghrelin / GHS-R-induced; cited from earlier work
[4] = biological target: T1, GHS-R (Rattus norvegicus, UniProt O08725); conditions: cited from earlier work
T1 construct: host or cells: CHO cells stably expressing rat GHS-R (inferred, same citation)

[5] = test system: IL-8 promoter activity in NCM460 cells expressing human GHS-R; assay: IL-8 promoter-luciferase assay in GHS-R-expressing NCM460 cells; type: cell-based
Method: Construction of a reporter construct containing 1521 bp (nucleotides −1481 to +40) of the promoter region of human IL-8 gene has been described previously (Warny, M. et al., J. Clin. Invest., 105:1147-1156 (2000)). IL-8 reporter constructs containing mutations in NF-κB, AP-1 or C/EBP sites have been described previously (Zhao, D. et al., J. Biol. Chem., 276:44464-44471 (2001)). […] Firefly and Renilla luciferase activities in cell extracts were measured using Dual-Luciferase Reporter Assay System (Promega). The relative luciferase activity were then calculated by normalizing IL-8 promoter-driven Firefly luciferase activity to control Renilla luciferase activity. […]
NCM460 cells were transiently transfected with pMMP-HA-GHSR or a control plasmid pMMP-LacZ along with IL-8 promoter-luciferase construct plus an internal control construct. The transfected cells were stimulated with ghrelin for 6 hours and the IL-8 promoter activity was measured.
To examine whether ghrelin-induced IL-8 gene expression involves the NF-κB pathway, NCM-GHS-R cells were transiently transfected with IL-8-luciferase construct along with an internal control plasmid. […] IL-8 promoter activity was measured. […]

[6] = biological target: human GHS-R with HA epitope (pMMP-HA-GHSR), transiently expressed in NCM460 cells (human) (UniProt Q92847); assay: cell-based or functional assay
[7] = test system: IL-8 secretion in NCM-GHS-R cells; assay: IL-8 secretion (ELISA) in NCM-GHS-R cells; type: cell-based, human; conditions: serum starved NCM-GHS-R cells, ghrelin 10^−7 M, various times
[8] = test system: NCM460, HT29 and Caco-2 cells; assay: IL-8 gene expression in colonic epithelial cell lines with endogenous ghrelin receptor; type: cell-based, human; conditions: NCM460, HT29, Caco-2 with very low endogenous ghrelin receptor

T1 sequence (O08725 whole entry): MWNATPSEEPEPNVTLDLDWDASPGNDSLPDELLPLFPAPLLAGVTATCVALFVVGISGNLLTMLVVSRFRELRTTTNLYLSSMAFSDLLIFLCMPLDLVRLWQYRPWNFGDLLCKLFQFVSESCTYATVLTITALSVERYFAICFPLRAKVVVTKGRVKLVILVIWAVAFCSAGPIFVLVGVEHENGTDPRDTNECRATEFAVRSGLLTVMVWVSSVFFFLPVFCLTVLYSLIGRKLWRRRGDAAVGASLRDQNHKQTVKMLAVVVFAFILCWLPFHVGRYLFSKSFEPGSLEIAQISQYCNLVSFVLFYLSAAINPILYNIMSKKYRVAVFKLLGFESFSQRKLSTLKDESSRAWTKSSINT
human GHS-R with HA epitope (pMMP-HA-GHSR), transiently expressed in NCM460 cells (human), sequence (Q92847 whole entry): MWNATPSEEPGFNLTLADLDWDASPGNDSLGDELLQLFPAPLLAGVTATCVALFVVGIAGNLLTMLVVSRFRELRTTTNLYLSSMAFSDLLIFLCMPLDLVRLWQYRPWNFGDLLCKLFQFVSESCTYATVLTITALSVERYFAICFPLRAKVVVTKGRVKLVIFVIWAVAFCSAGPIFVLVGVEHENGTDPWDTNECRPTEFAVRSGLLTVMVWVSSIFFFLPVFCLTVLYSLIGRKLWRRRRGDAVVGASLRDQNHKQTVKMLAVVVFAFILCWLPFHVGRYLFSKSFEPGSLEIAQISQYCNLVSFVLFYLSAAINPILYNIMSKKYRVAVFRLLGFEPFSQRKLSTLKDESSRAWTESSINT

## His-D-Trp-D-Lys-Trp-D-Phe-Lys-NH2 (H[dW][dK]W[dF]K-NH2; N-terminus assumed; SMILES NCCCC[C@H](NC(=O)[C@@H](Cc1ccccc1)NC(=O)[C@H](Cc1c[nH]c2ccccc12)NC(=O)[C@@H](CCCCN)NC(=O)[C@@H](Cc1c[nH]c2ccccc12)NC(=O)[C@@H](N)Cc1c[nH]cn1)C(N)=O) [[D-lys-3]-GHRP-6, commercially available hexapeptide ghrelin receptor (GHS-R) antagonist]
[1]; pretreated 10 minutes (anti-ghrelin IgG 2 and 5 μg/ml; [D-lys-3]-GHRP-6 1-20 nM), then rat ghrelin 5 minutes
  inhibition of ghrelin-induced MAPK phosphorylation: inhibited ghrelin-induced MAPK phosphorylation in a dose-dependent manner
[2]
  basal fluid secretion in buffer-exposed loops: no significant effect
  inhibition of toxin A-induced fluid secretion: approximately 50%
[3]
  block of food intake: efficiently block
[4]
  block of GHS-R-induced calcium response: efficiently block

## O=C(/C=C/c1ccc(O)c(O)c1)OCCc1ccccc1 [CAPE]
[5]; NCM-GHS-R cells, 10 μg/ml CAPE 30 minutes pretreatment, ghrelin 10^−7 M 4 hours
  inhibition of ghrelin-induced IL-8 promoter activity: inhibited ghrelin-induced IL-8 promoter activity

## ghrelin (species not stated, used on human NCM460-derived cells) (peptide)
[6]
  IL-8 promoter activity (luciferase reporter): 8 fold

## ghrelin
[1]; serum starved IEC-GHS-R cells, ghrelin 10^−7 M, various times
  MAP kinase phosphorylation: induces MAP kinase phosphorylation in a time-dependent manner
[5]; NCM460 cells transiently transfected with pMMP-HA-GHSR, ghrelin for 6 hours
  stimulation of IL-8 promoter activity: approximately 8 fold
[7]
  IL-8 secretion in conditioned media: significantly stimulates IL-8 secretion
[8]
  IL-8 gene expression on stimulation: does not mediate IL-8 gene expression
